Measurements published in article PMC11219860, “A chemogenetic approach for dopamine imaging with tunable sensitivity” (Nature Communications, 2024).

Assays:
[1] = biological target: T1, msDRD2 (Mus musculus, UniProt P61168); experiment: NanoBit complementation assay of mini-Gi recruitment; type: cell-based
T1 construct: expressed in transfected cells; host or cells: HEK293T
Protocol: To measure the effect of DETQ on mini-G protein recruitment by different GPCRs we used a Nanoluciferase (NanoBit)-based complementation assay[26],[27]. For this HEK293T cells were seeded in six-well plates (Techno Plastic Products) at a density of 300,000 cells per well and co-transfected with plasmids encoding either hmDRD1, msDRD1, msDRD2, msDRD5, msADRA1a, msβ2AR or ms5HT6 carrying a C-terminally fused SmBiT, in combination with the corresponding mini-G protein probe[78] (mini-Gs: for DRD1, DRD5, β2AR, 5HT6R; mini-Gq: for ADRA1a; or mini-Gi: for DRD2), which were N-terminally fused to LgBiT, in a 1:1 DNA ratio using Effectene transfection reagent (Qiagen). […] The plate was incubated at 37 °C for 30 min, before the luminescence signal was measured at 37 °C using a Tecan Spark plate reader before and after the manual addition of 25 µl of either ligand solution (final concentrations ranging from 1 nM to 100 µM), pure Fluorobrite-DMEM or 25 µl of a DETQ solution (1 µM final concentration).
For in vitro luminescence assays, ligand traces were divided by buffer traces, the area under the curve for each trace was calculated using GraphPad Prism, values were normalized and fitted as dose response curve. […] The statistical significance was determined using Welch’s ANOVA followed by Dunnett’s multiple comparison test (comparison of ligand or vehicle to ligand). […]

[2] = biological target: T2, msβ2AR (Mus musculus, UniProt P18762); experiment: NanoBit complementation assay of mini-Gs recruitment; type: cell-based
T2 construct: expressed in transfected cells; host or cells: HEK293T
T2 sequence (P18762 whole entry): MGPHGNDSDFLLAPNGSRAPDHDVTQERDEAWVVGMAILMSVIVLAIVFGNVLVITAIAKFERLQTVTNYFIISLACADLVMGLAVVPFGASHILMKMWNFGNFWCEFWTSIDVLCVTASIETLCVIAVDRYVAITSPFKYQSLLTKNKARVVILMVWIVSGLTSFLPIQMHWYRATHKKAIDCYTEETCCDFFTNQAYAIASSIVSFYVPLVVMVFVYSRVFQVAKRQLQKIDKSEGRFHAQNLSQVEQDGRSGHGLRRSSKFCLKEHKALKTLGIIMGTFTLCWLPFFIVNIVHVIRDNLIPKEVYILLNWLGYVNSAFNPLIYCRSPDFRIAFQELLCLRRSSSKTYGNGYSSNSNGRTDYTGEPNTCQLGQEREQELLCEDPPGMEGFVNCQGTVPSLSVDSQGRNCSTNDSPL
Protocol: To measure the effect of DETQ on mini-G protein recruitment by different GPCRs we used a Nanoluciferase (NanoBit)-based complementation assay[26],[27]. For this HEK293T cells were seeded in six-well plates (Techno Plastic Products) at a density of 300,000 cells per well and co-transfected with plasmids encoding either hmDRD1, msDRD1, msDRD2, msDRD5, msADRA1a, msβ2AR or ms5HT6 carrying a C-terminally fused SmBiT, in combination with the corresponding mini-G protein probe[78] (mini-Gs: for DRD1, DRD5, β2AR, 5HT6R; mini-Gq: for ADRA1a; or mini-Gi: for DRD2), which were N-terminally fused to LgBiT, in a 1:1 DNA ratio using Effectene transfection reagent (Qiagen). 24 h after transfection cells were detached using Versene (ThermoFisher Scientific), washed, centrifuged (RT, 150 g, 3 min), and resuspended (0.5 × 10^6 cells ml^−1) in Fluorobrite DMEM (ThermoFisher Scientific) complemented with 30 mM HEPES (ThermoFisher Scientific). First, 95 µl of the cell suspension were added into each well of a white flat-bottom 96-well OptiPlate (PerkinElmer), then 25 µl of a 20-fold dilution of Nano-Glo reagent in LCS buffer (Promega) and last either 5 ul of pure Fluorobrite-DMEM or 5 ul of DETQ diluted in Fluorobrite DMEM (final concentration 100 nM for DRD1; 1 µM for all other receptors). The plate was incubated at 37 °C for 30 min, before the luminescence signal was measured at 37 °C using a Tecan Spark plate reader before and after the manual addition of 25 µl of either ligand solution (final concentrations ranging from 1 nM to 100 µM), pure Fluorobrite-DMEM or 25 µl of a DETQ solution (1 µM final concentration).
For in vitro luminescence assays, ligand traces were divided by buffer traces, the area under the curve for each trace was calculated using GraphPad Prism, values were normalized and fitted as dose response curve. The change in luminescence (∆L/L0) upon addition of different ligands was calculated as follows: (Lt – L0)/L0, with Lt being the Luminescence at ten timepoints t immediately after ligand application, and L0 being the luminescence of ten timepoints before ligand application. The statistical significance was determined using Welch’s ANOVA followed by Dunnett’s multiple comparison test (comparison of ligand or vehicle to ligand). For ex vivo imaging experiments, statistical analyses were performed in Prism (GraphPad) using independent samples t-test or nonparametric Mann-Whitney U-test when assumption of normality was violated (assessed using Schapiro-Wilk’s test). Curve fitting parameters were compared by extra sum-of-squares F test. For in vivo imaging experiments, statistical tests were paired and unpaired t-tests (two-tailed) and repeated-measures ANOVA for parametric data, while they were Wilcoxon rank sum tests or Mann-Whitney for non-parametric data. Sidak or Tukey post-hoc tests correcting for multiple comparisons were used in the case of significant interactions in ANOVA. All p-values are indicated in the Results section. […] No statistical methods were used to predetermine sample size. No data were excluded from the analyses. Group allocations used in this study were randomly assigned to animals and/or cultured cells. The Investigators were not blinded to allocation during experiments and outcome assessment.

[3] = tested on: human DRD1 (hmDRD1); conditions: cited from earlier work

T1 sequence (P61168 whole entry): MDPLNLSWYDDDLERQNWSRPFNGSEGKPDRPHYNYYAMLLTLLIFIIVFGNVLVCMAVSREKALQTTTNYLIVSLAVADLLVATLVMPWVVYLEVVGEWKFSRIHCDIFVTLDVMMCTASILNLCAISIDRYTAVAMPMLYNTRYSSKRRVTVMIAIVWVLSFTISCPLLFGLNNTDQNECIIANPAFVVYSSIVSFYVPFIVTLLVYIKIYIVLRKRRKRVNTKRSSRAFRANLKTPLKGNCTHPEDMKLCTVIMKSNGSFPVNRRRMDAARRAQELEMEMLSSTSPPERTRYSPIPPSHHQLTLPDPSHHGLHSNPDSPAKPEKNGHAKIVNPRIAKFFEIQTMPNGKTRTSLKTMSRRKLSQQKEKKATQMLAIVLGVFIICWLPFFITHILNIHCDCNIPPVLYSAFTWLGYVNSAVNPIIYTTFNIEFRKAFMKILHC

In the case of `C[C@H]1c2cccc(C(C)(C)O)c2C[C@H](CO)N1C(=O)Cc1c(Cl)cccc1Cl` [DETQ, 2-(2,6-dichlorophenyl)-1-((1S,3R)-3-(hydroxymethyl)-5-(2-hydroxypropan-2-yl)-1-methyl-3,4-dihydroisoquinolin-2(1H)-yl)ethan-1-one], the “agonist mode: direct agonist effect” value ([1]; DETQ 1 µM alone) is reported as “no direct agonist effect”, the “allosteric modulator mode: effect on agonist dose-response” value ([1]; DETQ 1 µM, DA) is reported as “No allosteric effect” and the “agonist mode: direct agonist effect” value ([2]; DETQ 1 µM alone) is reported as “no direct agonist effect”. For the same molecule, the “allosteric modulator mode: effect on agonist dose-response” value ([2]; DETQ 1 µM, NE) was “No allosteric effect”, the Kb [3] was 11.4 nM and the “maximal potentiation of dopamine” value ([3]; human clones, ref Hao et al., 2019, Wang et al., 2018) was 75-85%. The “in vitro potency as a D1PAM at the hD1 receptor” value ([3]; ref Svensson et al., 2017, Hao et al., 2019) was 11 nM.
